Test results as given in US20260335282A1, “NOVEL 3-ARYLIDENE-2-INDOLINONE DERIVATIVES FOR THERAPEUTIC USE” (ISTANBUL UNIVERSITESI REKTORLUGU, priority 2022, published 2026).
“Also recorded” adds a separate entry of the source.

Assays:
HUVEC cells = test: MTT cytotoxicity, healthy cells HUVEC; type: cell-based, human; settings: for Selectivite Index, HUVEC (Table 2): HUVEC vs colon or pancreas cancer cells, cancer line not given; for IC50: MTT, no * mark (incubation time not specified)
Excerpt: (§1) The cytotoxicity, general tyrosine kinase inhibitory effects and cell death (apoptosis/necrosis) assays of 1-benzyl-3-(1H-indol-3-ylmethylidene)-1,3-dihydro-2H-indol-2-one derivatives (Formula 5) of the present invention are studied by the following methods. […] HUVEC (human umbilical vein endothelial cell), MCF-10F (human breast epithelial cell) and Beas2b (human lung bronchial epithelial cell) cell lines have been used as healthy control cells in MTT experiments.
(§2) Beas2b (human lung bronchiole epithelial cell) and HEK293 (renal tubule epithelium) cells used as normal cell lines were cultured in RPMI medium, and HUVEC (human umbilical cord endothelial cells) and MCF-10F (human breast epithelial cell) cells are cultured in DMEM medium containing 100 µg/ml penicillin/streptomycin. The cells, which covered 70% of the culture flask, are washed with phosphate buffer and then removed from the surface of the flask by application of trypsin-ethylenediamine tetraacetic acid (Trypsin-EDTA; 0.25%) solution, passaged, counted and seeded on appropriate plates before each experiment. Cells are treated with a total of 45 2-indolinone compounds (5) at concentrations of 0.1, 1, 5 and 10 μM. Stock compounds are prepared in 1 ml dimethylsulfoxide (DMSO) and 4 different dilutions were prepared with medium and performed to the cells. Control group cells are treated with DMSO at a similar concentration to the experimental groups.
(§3) MTT (3-(4,5-dimethylthiazol-2-yl)-2,5-diphenyl-2H-tetrazolium bromide) colorimetric assay provides quantitation of viable cells with ongoing mitochondrial activity in culture medium. According to the standard procedure in cell culture conditions, cells are maintained in RPMI-1640 and DMEM culture media containing 10% FBS and 1% penicillin/streptomycin. The trypan blue test is used for cell counts.
(§4) The effects of 45 2-indolinone compounds (5) on cell viability in all cancer cell lines are investigated by MTT assay. Cells are seeded in a 96-well flat bottom plate with 5000 cells in each well and 2-indolinone compounds (5) at concentrations of 0.1, 1, 5 and 10 μM are performed to the cells the next day. After 48 and/or 72 hours following treatment with 2-indolinone compounds, 50 μl of the supernatant is slowly discarded (as it was acid medium) and MTT at a concentration of 5 mg/ml is added to each well in a volume of 10 μl. After incubation for 4 hours, the formazan crystals formed in the wells are dissolved by adding 100 μl DMSO and the optical density is read at 570 nm test wavelength and 630 nm reference wavelength. Cell viability is expressed as % cell viability by comparing the absorbance of control and test wells. IC50 value is calculated from the dose-response curves prepared for each compound. In addition, the possible DMSO effect is eliminated by preparing negative control wells compatible with the amount of DMSO contained in the compounds. To understand the reaction of the compounds with MTT, cell-free (MTT+compounds) negative controls are prepared at the concentrations used (Mosmann, 1983). […] The absorbance values obtained are compared to the control and statistically evaluated by unpaired t-test using “Graphpad Prism 5.04” software. “P<0.05” is accepted as significant. When evaluating cytotoxic effects, the present inventors aim for the inventive compounds to be effective in cancer cells and ineffective in healthy cells. The inventive compounds have also been compared with sunitinib, one of the reference chemotherapy drugs currently used in treatment.
(§5) Among the compounds of the present invention, those that killed cancer cells by at least 50% (p<0.05) are selected and tested whether a 10-fold concentration of the M concentration at the IC50 value is toxic to normal healthy cells.

MDA-MB-231 cells = test: MTT cytotoxicity, breast cancer cells MDA-MB-231; type: cell-based, human; settings: read-out: IC50, MDA-MB-231 (breast); MTT, no * mark (incubation time not given)
Excerpt: as §1, §2, §3, §4, §5

HCT-116 cells = test: MTT cytotoxicity, colon cancer cells HCT-116; type: cell-based, human; settings: no * mark (incubation time not specified)
Excerpt: as §1, §2, §3, §4

MCF-10F/Beas2b cells = test: MTT cytotoxicity, healthy cells MCF-10F/Beas2b; type: cell-based, human; settings: MCF-10F/Beas2b vs colon or pancreas cancer cells; cancer line not given
Excerpt: as §1, §2, §3, §4, §5

[1] = test system: general tyrosine kinase activity in MIA PaCa-2 pancreas cancer cells; test: General tyrosine kinase activity (ELISA) in MIAPaCa-2 cells; type: cell-based, human; settings: 72 hours, IC50 concentration
Procedure: Takara Universal Tyrosine Kinase Assay Kit is used to determine the effects of 11 2-indolinone compounds (Y1, Y2, Y3, Y4, Y5, Y8, […], […], Y21, Y23, 20C, 22C) on general tyrosine kinase activity in cancer cells. Cells are seeded in 6-well plates (4.10^5 cells/well) and the IC50 concentration of each selected molecule is performed to the cells for 48 or 72 hours. Cells in the control group are incubated with medium only. At the end of the incubation period, the cells in each well are washed with PBS and cells are removed from the wells using a cell scraper via 1 ml of the extraction buffer in the kit. The cell lysate is transferred to ependorf tubes and centrifuged at 10.000 g for 10 minutes at +4° C. and the supernatant is used as a sample for activity determination. After the extracts obtained from the control and experimental groups are diluted 1:25, 40 μl extracts is transferred to two wells in the 96-well plate in the kit. In addition, the standard solution in the kit is diluted according to the kit instructions and each concentration is transferred 40 μl into three wells. 10 μl of 40 mM ATP-2Na solution is added to all wells and the plate is incubated at 37° C. for 30 minutes. After incubation, all wells are washed 4 times with wash buffer. 100 μl of blocking solution is added to each well and incubated again at 37° C. for 30 minutes. After incubation, the liquid in the wells is discarded and 50 μl of anti-phosphotyrosine-HRP solution is added to each well and incubated at 37° C. for 30 minutes. The wells are washed again four times with wash buffer and 100 μl of HRP-substrate solution (TMBZ) is added to each well and incubated at 37° C. for 15 minutes. The reaction is finished by adding 100 μl of stop solution to each well and the optical density in each well is measured at 405 nm with a microplate reader (BioTek, USA). The tyrosine kinase activity in each sample is calculated from the standard curve obtained from the absorbance values of the standard solutions with the kit (Chan W Y, Lau P M, Yeung K W, Kong S K. The second generation tyrosine kinase inhibitor dasatinib induced eryptosis in human erythrocytes—An in vitro study. Toxicol Lett. 2018; 295:10-21). This activity is normalized compared to the control group by dividing by the amount of protein in each sample.
The effects of 11 2-indolinone compounds (Y1, Y2, Y3, Y4, Y5, Y8, Y14, Y21, Y23, 20C and 22C) having the structure of formula (5), which are prominent with their cytotoxicity in A498, MIAPaCa-2 and HCT-116 cancer cell lines and nontoxic properties in healthy cells, on general tyrosine kinase activity in cancer cells are determined.

MIAPaCa-2 cells [2] = test: Apoptosis/necrosis detection, Annexin V/PI flow cytometry, MiaPaca-2; type: cell-based, human
Procedure: (§6) After incubation with 2-indolinone compounds (IC50 μM concentration; 48 and/or 72 hours), cells are washed twice with PBS and the cell pellet is suspended in Annexin V binding buffer. After this incubation, cells are incubated with FITC-conjugated Annexin V and propidium iodine staining solution for 15 minutes in the dark and at room temperature. Then, cells are analyzed by flow cytometry (Beckman coulter, Navios) (Wlodkowic, D., Skommer, J, Darzynkiewicz, Z. 2009. Flow cytometry-based apoptosis detection, Methods Mol Biol., 559, 1-14).

A549 cells = test: MTT cytotoxicity, lung cancer cells A549; type: cell-based, human; settings: no * mark (incubation time not specified)
Excerpt: as §1, §2, §3, §4, §5

HT-29 cells = test: MTT cytotoxicity, colon cancer cells HT-29; type: cell-based, human; settings: for IC50: MTT, no * mark (incubation time not specified)
Excerpt: as §1, §2, §3, §4

MCF-7 cells = test: MTT cytotoxicity, breast cancer cells MCF-7; type: cell-based, human; settings: MTT, no * mark (incubation time not specified)
Excerpt: as §1, §2, §3, §4, §5

CAKI-1 cells = test: MTT cytotoxicity, kidney cancer cells CAKI-1; type: cell-based, human; settings: no * mark (incubation time not specified)
Excerpt: as §1, §2, §3, §4, §5

MIAPaCa-2 cells [3] = test: MTT cytotoxicity, pancreas cancer cells MIAPaCa-2; type: cell-based, human; settings: for selectivity index: MCF-10F/Beas2b vs MIAPaCa-2; for IC50: MTT, no * mark (incubation time not specified)
Excerpt: as §1, §2, §3, §4

A498 cells = test: MTT cytotoxicity, kidney cancer cells A498; type: cell-based, human; settings: MTT, no * mark (incubation time not specified)
Excerpt: as §1, §2, §3, §4, §5

human cancer cells = test: MTT cell viability, human cancer cells overall; type: cell-based; settings: cell line as discussed at the place
Excerpt: as §1, §2, §3
The effects of 45 2-indolinone compounds (5) on cell viability in all cancer cell lines are investigated by MTT assay. Cells are seeded in a 96-well flat bottom plate with 5000 cells in each well and 2-indolinone compounds (5) at concentrations of 0.1, 1, 5 and 10 μM are performed to the cells the next day. After 48 and/or 72 hours following treatment with 2-indolinone compounds, 50 μl of the supernatant is slowly discarded (as it was acid medium) and MTT at a concentration of 5 mg/ml is added to each well in a volume of 10 μl. After incubation for 4 hours, the formazan crystals formed in the wells are dissolved by adding 100 μl DMSO and the optical density is read at 570 nm test wavelength and 630 nm reference wavelength. Cell viability is expressed as % cell viability by comparing the absorbance of control and test wells. IC50 value is calculated from the dose-response curves prepared for each compound. In addition, the possible DMSO effect is eliminated by preparing negative control wells compatible with the amount of DMSO contained in the compounds. To understand the reaction of the compounds with MTT, cell-free (MTT+compounds) negative controls are prepared at the concentrations used (Mosmann, 1983). […] The absorbance values obtained are compared to the control and statistically evaluated by unpaired t-test using “Graphpad Prism 5.04” software. “P<0.05” is accepted as significant. When evaluating cytotoxic effects, the present inventors aim for the inventive compounds to be effective in cancer cells and ineffective in healthy cells. […]

[4] = test system: pancreas and kidney cancer cells; test: Apoptosis detection, Annexin V/PI flow cytometry, pancreas and kidney cancer cells; type: cell-based, human
Procedure: as §6
Whether the 2-indolinone derivatives (5) with the highest selectivity index and general TKI activity stimulated apoptosis and necrosis is determined by Annexin V and propidium iodine staining in pancreas and kidney cancer cells. Annexin V/PI flow cytometry apoptosis values of the tested compounds Y1, Y2, Y3, Y4, Y8 and Y14 are found to be 40% and above in correlation with MTT results. The apoptosis rates of the control groups and the substances are analyzed by t test in GraphPad version 9.0.

Compound | Selectivite Index, HUVEC (Table 2) (HUVEC cells) | IC50 (HUVEC cells) | IC50 (MDA-MB-231 cells) | IC50 (HCT-116 cells) | Selectivite Index, MCF-10F/Beas2b (Table 2) (MCF-10F/Beas2b cells) | general tyrosine kinase activity compared to control [1] | necrosis compared to control (MIAPaCa-2 cells [2]; MiaPaca-2) | apoptosis (early and late) compared to control (MIAPaCa-2 cells [2]; MiaPaca-2, IC50 values) | IC50 (A549 cells) | IC50 (HT-29 cells) | IC50 (MCF-7 cells) | IC50 (CAKI-1 cells) | selectivity index (MIAPaCa-2 cells [3]) | IC50 (MIAPaCa-2 cells [3]) | IC50 (A498 cells) | selectivity index (HT-29 cells; MCF-10F/Beas2b vs HT-29) | potency/selectivity compared with sunitinib malate (human cancer cells) | Annexin V/PI flow cytometry apoptosis values [4]
O=C1/C(=C\c2c[nH]c3ccccc23)c2cc(F)ccc2N1Cc1ccccc1 [Y5] | 8.04 | 2170 nM | 7.94 µM | 2050 nM | > 37.04 | significantly decreased; also recorded: decreased the general tyrosine kinase activity | did not cause necrosis | increase in apoptosis at IC50 values was statistically significant | 7.81 µM | 2980 nM | 4.44 µM | 3.42 µM | > 37 | 270 nM | 4.32 µM |  |  | 
O=C1/C(=C\c2c[nH]c3ccccc23)c2ccccc2N1Cc1cccc(F)c1 [51C] | 6.13 | 5700 nM | > 10 µM | 1130 nM | > 10.75 |  |  |  | > 10 µM | 930 nM | > 10 µM | > 10 µM |  | 5200 nM | 6.22 µM | > 11 | more potent and selective than Sunitinib malate | 
O=C1/C(=C\c2c[nH]c3ccccc23)c2cc(Cl)ccc2N1Cc1ccccc1 [Y2] | 2.21 | 1060 nM | 4.96 µM | 1440 nM | > 20.83 | significantly decreased; also recorded: decreased the general tyrosine kinase activity |  |  | 4.04 µM | 1520 nM | 4.16 µM | 4.25 µM | > 21 | 480 nM | 2.36 µM |  |  | ≥ 40%
